The source of these data is ChEMBL document CHEMBL4376803, “Recent Advances in the Exploration of Therapeutic Analogues of Gramicidin S, an Old but Still Potent Antimicrobial Peptide” (J Med Chem, 2019).

Values after ≈ are worked out from the molar mass of the structure shown. Where only a bound is given, the exact number is not on record here.

For data set [1], the system named is Staphylococcus aureus. Description: Antibacterial activity against Staphylococcus aureus ATCC 29213 after overnight incubation. The format is functional.
In data set [2] the test system is Enterococcus faecalis. Description: Antibacterial activity against Enterococcus faecalis ATCC 29212 after overnight incubation. The format is functional.
In data set [3] the test system is Escherichia coli. Description: Antibacterial activity against Escherichia coli ATCC 25922 after overnight incubation. The data set is classed as functional.
Data set [4] relates to Pseudomonas aeruginosa. Briefly: Antibacterial activity against Pseudomonas aeruginosa ATCC 19582 after 24 hrs by broth dilution method. Conditions: ATCC 19582, 24 h. The format is functional.
A short description of data set [5]: Hemolytic activity against RBC (unknown origin) at 100 ul after 4 hrs. The data set is classed as ADME, cell-based, Erythrocyte. The conditions noted are these: red blood cells (unknown origin).
For data set [6], the system named is Staphylococcus aureus. Briefly: Antibacterial activity against Staphylococcus aureus 7323. The format is functional.
Data set [7] concerns Escherichia coli. Briefly: Antibacterial activity against Escherichia coli ATCC 25922 after 24 hrs by broth dilution method. The data set is classed as functional. The conditions noted are these: ATCC 25922, 24 h.
The test system of data set [8] is Enterococcus faecalis. Description: Antibacterial activity against Enterococcus faecalis 1131 after 24 hrs by broth dilution method. The data set is classed as functional. Conditions: Enterococcus faecalis, 1131, 24 h.
The nature of data set [9]: Haemolytic activity in human erythrocytes incubated for 30 mins. The format is ADME, cell-based, Erythrocyte.
Data set [10] relates to Staphylococcus aureus. Description: Antibacterial activity against Staphylococcus aureus 209P incubated for 20 hrs by liquid microdilution method. The data set is classed as functional.
In data set [11] the test system is Escherichia coli. Briefly: Antibacterial activity against Escherichia coli K-12 strain W3110 incubated for 20 hrs by liquid microdilution method. The data set is classed as functional. Conditions: K-12 substr. W3110, 20 h.
The test system of data set [12] is Pseudomonas aeruginosa. Description: Antibacterial activity against Pseudomonas aeruginosa NBRC 3080 after overnight incubation by microplate dilution method. The format is functional.
Data set [13] in a line: Hemolytic activity in sheep RBC incubated for 30 mins. The data set is classed as ADME, cell-based, Ovis aries, Erythrocyte. The conditions noted are these: sheep red blood cells.
The next data set has as its system Bacillus subtilis. Briefly: Antibacterial activity against Bacillus subtilis NBRC 3513 after overnight incubation by microplate dilution method. The data set is classed as functional.
The subject of data set [14] is Escherichia coli. Description: Antibacterial activity against Escherichia coli NBRC 12734 after overnight incubation by microplate dilution method. The format is functional.
A further data set concerns Priestia megaterium. Briefly: Antibacterial activity against Bacillus megaterium ATCC 19213 after overnight incubation by microplate dilution method. The format is functional.
Data set [15] has as its system Staphylococcus aureus. Description: Antibacterial activity against Staphylococcus aureus NBRC 12732 after overnight incubation by microplate dilution method. The data set is classed as functional.

For the compound `CC(C)C[C@@H]1NC(=O)[C@H](CCCN)NC(=O)[C@H](C(C)C)NC(=O)[C@@H]2CCCN2C(=O)[C@@H](Cc2ccc(O)cc2)NC(=O)[C@H](CC(C)C)NC(=O)[C@@H](CCCN)NC(=O)[C@H](C(C)C)NC(=O)[C@@H]2CCCN2C(=O)[C@@H](Cc2ccc(O)cc2)NC1=O`, the MIC was 32 mg/L (≈ 27.3 µM) against Staphylococcus aureus [1], 32 mg/L (≈ 27.3 µM) with Enterococcus faecalis [2] and 64 mg/L (≈ 54.5 µM) with Escherichia coli [3].
With `CC(C)C[C@@H]1NC(=O)[C@H](CCCN)NC(=O)[C@H](C(C)C)NC(=O)[C@@H]2CCCN2C(=O)[C@@H](Cc2cn(Cc3cccc4ccccc34)nn2)NC(=O)[C@H](CC(C)C)NC(=O)[C@@H](CCCN)NC(=O)[C@H](C(C)C)NC(=O)[C@@H]2CCCN2C(=O)[C@@H](Cc2ccccc2)NC1=O`, the MIC against Pseudomonas aeruginosa [4] is more than 64 mg/L; in the data set with Staphylococcus aureus [6] it was 4 mg/L (≈ 3.14 µM); in the data set with Escherichia coli [7] it was 64 mg/L (≈ 50.3 µM); against Enterococcus faecalis [8], 4 mg/L (≈ 3.14 µM). The 50% haemolytic concentration (HC50) at 4 h in data set [5] is 5 to 10 µg/mL.
As for `CC(C)C[C@@H]1NC(=O)[C@H](CCCN)NC(=O)[C@H](C(C)C)NC(=O)[C@@H]2CCCN2C(=O)[C@@H](Cc2c[nH]nn2)NC(=O)[C@H](CC(C)C)NC(=O)[C@@H](CCCN)NC(=O)[C@H](C(C)C)NC(=O)[C@@H]2CCCN2C(=O)[C@@H](Cc2ccccc2)NC1=O`, the MIC was more than 64 mg/L against Pseudomonas aeruginosa [4], 16 mg/L (≈ 14.1 µM) against Staphylococcus aureus [6], 32 mg/L (≈ 28.3 µM) in the data set with Escherichia coli [7] and 64 mg/L (≈ 56.5 µM) in the data set with Enterococcus faecalis [8]. In data set [5], this compound came in with an HC50 at 4 h of 45 to 55 µg/mL.
In the case of `CC(C)C[C@@H]1NC(=O)[C@H](CCCN)NC(=O)[C@H](C(C)C)NC(=O)[C@@H]2C[C@@H](N)CN2C(=O)[C@@H](Cc2ccccc2)NC(=O)[C@H](CC(C)C)NC(=O)[C@H](CCCN)NC(=O)[C@H](C(C)C)NC(=O)[C@@H]2C[C@@H](N)CN2C(=O)[C@@H](Cc2ccccc2)NC1=O` [listing 1 of 2 here], the HC50 at 0.5 h in data set [9] was in the range of 50 to 100 µg/mL.
On to `CC(C)C[C@@H]1NC(=O)[C@H](CCCN)NC(=O)[C@H](C(C)C)NC(=O)[C@@H]2C[C@@H](N)CN2C(=O)[C@@H](Cc2ccccc2)NC(=O)[C@H](CC(C)C)NC(=O)[C@H](CCCN)NC(=O)[C@H](C(C)C)NC(=O)[C@@H]2C[C@@H](N)CN2C(=O)[C@@H](Cc2ccccc2)NC1=O` [listing 2 of 2 here], for which the MIC with Staphylococcus aureus [10] was 32 mg/L (≈ 27.3 µM); with Escherichia coli [11], 64 mg/L (≈ 54.6 µM).
As to `CC(C)C[C@@H]1NC(=O)[C@H](CCCN)NC(=O)[C@H](C(C)C)NC(=O)[C@@H]2C[C@@H](N[C@@H](Cc3ccccc3)C(=O)O)CN2C(=O)[C@@H](Cc2ccccc2)NC(=O)[C@H](CC(C)C)NC(=O)[C@H](CCCN)NC(=O)[C@H](C(C)C)NC(=O)[C@@H]2C[C@@H](N[C@@H](Cc3ccccc3)C(=O)O)CN2C(=O)[C@@H](Cc2ccccc2)NC1=O` [listing 1 of 2 here], in data set [9], the concentration for 50% haemolysis (HC50) at 0.5 h is 20 to 50 µg/mL.
Turning to `CC(C)C[C@@H]1NC(=O)[C@H](CCCN)NC(=O)[C@H](C(C)C)NC(=O)[C@@H]2C[C@@H](N[C@@H](Cc3ccccc3)C(=O)O)CN2C(=O)[C@@H](Cc2ccccc2)NC(=O)[C@H](CC(C)C)NC(=O)[C@H](CCCN)NC(=O)[C@H](C(C)C)NC(=O)[C@@H]2C[C@@H](N[C@@H](Cc3ccccc3)C(=O)O)CN2C(=O)[C@@H](Cc2ccccc2)NC1=O` [listing 2 of 2 here], the MIC against Staphylococcus aureus [10] is 8 mg/L (≈ 5.45 µM); against Escherichia coli [11], 16 mg/L (≈ 10.9 µM).
Regarding `CC(C)C[C@@H]1NC(=O)[C@H](CCCN)NC(=O)[C@H](C(C)C)NC(=O)[C@@H]2CCCN2C(=O)[C@@H](Cc2ccccc2)NC(=O)[C@H](CC(C)C)NC(=O)[C@H](CCCN)NC(=O)[C@H](C(C)C)NC(=O)[C@@H]2CCCN2C(=O)NC(=O)[C@H](Cc2ccccc2)NC(=O)[C@H](CCCN)NC1=O`, the MIC was 100 mg/L (≈ 77 µM) with Pseudomonas aeruginosa [12]; 6.25 mg/L (≈ 4.81 µM) in the data set on Bacillus subtilis; 25 mg/L (≈ 19.3 µM) against Escherichia coli [14]; 3.13 mg/L (≈ 2.41 µM) in the data set on Priestia megaterium; 3.13 mg/L (≈ 2.41 µM) in the data set with Staphylococcus aureus [15]. This compound displayed an HC50 at 0.5 h in [13] of 90 to 100 µg/mL.
